According to article PMC10610090, “The Synthetic Peptide GA-Hecate and Its Analogs Inhibit Multiple Steps of the Chikungunya Virus Infection Cycle In Vitro” (Pharmaceuticals, 2023):
Where two headings read alike, the source gives them in different places. Peptide text beside a SMILES is read from it. * marks the point of attachment. Galloyl = O=C(c1cc(O)c(O)c(O)c1)*; X1 = CN(C)c1ccc(C(=O)*)cc1

Assays:
CHIKV-NLuc = type: cell-based, Chikungunya virus; details: CHIKV-NLuc MOI 0.1, 16 h, NLuc activity
Protocol: Measurement of the activity of the virus-encoded NanoLuciferase (NLuc) reporter was used to evaluate the antiviral activity of the peptides against CHIKV-NLuc at the end of every assay with the peptides. Cells were infected with CHIKV-NLuc, and the supernatant was aspirated 16 h post-infection (h.p.i.), and each well of the plate was washed with PBS solution. Then, 30 µL of Renilla Luciferase Assay Lysis Buffer (Promega, Madison, WI, USA) was added to the cells. After 30 min, 50 μL of substrate for Renilla Luciferase (Renilla Luciferase assay reagent, Promega, Madison, WI, USA) was automatically injected in the wells into the plate reader (FLUOstar Omega/BMG LABTECH, Ortenberg, Germany), and the light intensity reading was performed. The values obtained are shown as the percentage of protein NLuc activity in the control (samples treated with sterile water).
The effects of the peptides on the CHIKV infectious cycle were analyzed as previously described. BHK-21 and Huh-7 cells (1 × 10^4 per well) were seeded in 96-well white culture plates (Greiner Bio-One, Americana, SP, Brazil) for 24 h. Then, the virus at an MOI of 0.1 and the peptides at the MNTC were simultaneously added to the cells. The plate was incubated at 37 °C for 16 h, and then antiviral activity against CHIKV was evaluated through NLuc activity. […] The SI was calculated using the ratio CC50/EC50.
(§1) All the described experiments were performed in three independent events, each of which was carried out in three (cytotoxicity) and four (antiviral activity) technical replicates. The CC50 and EC50 values were determined by nonlinear regression of the dose-response curves (Log [peptide] × response). The statistical significance was determined employing the paired Student’s t-test for parametric results and the Mann–Whitney test for nonparametric data using GraphPad Prism 5.0 software (GraphPad Software, San Diego, CA, USA). A p-value < 0.05 was considered statistically significant.

[1] = MTT cytotoxicity assay in Huh-7 cells; type: cell-based; details: human
Protocol: (§2) Cytotoxicity in BHK-21 and Huh-7 cells was evaluated using the 3-(4,5-dimethylthiazol-2-yl)-2,5-diphenyltetrazolium bromide (MTT) assay as previously described. The cells (5 × 10^3 per well) were seeded in 96-well culture plates (TPP, Trasadingen, Switzerland). After 24 h, the cells were incubated with the peptides at concentrations of 1.6, 3.1, 6.3, 12.5, 25, 50, and 100 µM for 24 h. Then, the medium containing the peptides was removed, and 100 µL of MTT (Sigma-Aldrich, St. Louis, MO, USA) diluted in DMEM (Cultilab, Campinas, SP, Brazil) (1 mg/mL) was added to each well of the plate (1 mg/mL). After 30 min of incubation at 37 °C, the medium containing MTT (Sigma-Aldrich, St. Louis, MO, USA) was removed, and 100 µL of dimethylsulfoxide (DMSO, Synth, Diadema, SP, Brazil) was added to the cells. The plate was agitated at 200 rpm. After 5 min, the absorbance was measured at a wavelength of 572 nm on a plate reader (FLUOstar Omega/BMG LABTECH, Ortenberg, Germany). The CC50 values were calculated using GraphPad Prism 5.0 software (GraphPad Software, San Diego, CA, USA).
as §1

[2] = MTT cytotoxicity assay in BHK-21 cells; type: cell-based; details: hamster
Protocol: as §2, §1

BHK-21 and Huh-7 cells = experiment: MTT cytotoxicity, maximum nontoxic concentration over both cell lines; type: cell-based, hamster; human
Protocol: The cytotoxicity of the peptides GA-Hecate, PSSct1905, and PSSct1910 was evaluated in baby hamster kidney fibroblast cells (BHK-21) and human hepatocarcinoma epithelial cells (Huh-7). We defined the maximum nontoxic concentration (MNTC), expressed in µM, as the highest peptide concentration that kept at least 80% of BHK-21 and Huh-7 cells viable within 24 h.
as §2, with “The plate was agitated at 200 rpm.” left out

| SMILES | EC50 (CHIKV-NLuc; BHK-21 cells) [µM] | EC50 (CHIKV-NLuc; Huh-7 cells) [µM] | CC50 at 24 h [1] [µM] | CC50 at 24 h [2] [µM] | increase in the CC50 value compared to GA-Hecate (BHK-21 and Huh-7 cells; more prominent in BHK-21 cells) | MNTC (maximum nontoxic concentration) (BHK-21 and Huh-7 cells; highest concentration keeping at least 80% of BHK-21 and Huh-7 cells viable within 24 h, MTT) [µM] |
| --- | --- | --- | --- | --- | --- | --- |
| CC(C)C[C@H](NC(=O)[C@H](CCCCN)NC(=O)[C@H](CCCCN)NC(=O)[C@H](CC(C)C)NC(=O)[C@H](C)NC(=O)[C@H](CCCCN)NC(=O)[C@H](CCCCN)NC(=O)[C@H](CC(C)C)NC(=O)[C@H](C)NC(=O)[C@H](CCCCN)NC(=O)[C@H](CC(C)C)NC(=O)[C@H](C)NC(=O)[C@H](CC(C)C)NC(=O)[C@H](C)NC(=O)[C@H](Cc1ccccc1)NC(=O)c1cc(O)c(O)c(O)c1)C(=O)O [PSSct1905, GA-FALALKALKKALKKL-COOH] (Galloyl-FALALKALKKALKKL-OH) | 8.4 | 7.1 | 205 | 56.5 | approximately 2 fold |  |
| CC(C)C[C@H](NC(=O)[C@H](C)NC(=O)[C@H](CCCCN)NC(=O)[C@H](CCCCN)NC(=O)[C@H](CC(C)C)NC(=O)[C@H](C)NC(=O)[C@H](CCCCN)NC(=O)[C@H](CCCCN)NC(=O)[C@H](CC(C)C)NC(=O)[C@H](CCCCN)NC(=O)[C@H](CCCCN)NC(=O)[C@H](CC(C)C)NC(=O)[C@H](C)NC(=O)[C@H](CCCCN)NC(=O)[C@H](CCCCN)NC(=O)[C@H](CC(C)C)NC(=O)[C@H](C)NC(=O)[C@H](CCCCN)NC(=O)[C@H](CC(C)C)NC(=O)[C@H](C)NC(=O)[C@H](CC(C)C)NC(=O)[C@H](C)NC(=O)[C@H](Cc1ccccc1)NC(=O)c1ccc(N(C)C)cc1)C(N)=O [PSSct1910] (X1-FALALKALKKALKKLKKALKKAL-NH2) | 1.1 | 0.2 | 7.7 | 5.4 |  | 1.6 |
| CC(C)C[C@H](NC(=O)[C@H](C)NC(=O)[C@H](CCCCN)NC(=O)[C@H](CCCCN)NC(=O)[C@H](CC(C)C)NC(=O)[C@H](C)NC(=O)[C@H](CCCCN)NC(=O)[C@H](CCCCN)NC(=O)[C@H](CC(C)C)NC(=O)[C@H](CCCCN)NC(=O)[C@H](CCCCN)NC(=O)[C@H](CC(C)C)NC(=O)[C@H](C)NC(=O)[C@H](CCCCN)NC(=O)[C@H](CCCCN)NC(=O)[C@H](CC(C)C)NC(=O)[C@H](C)NC(=O)[C@H](CCCCN)NC(=O)[C@H](CC(C)C)NC(=O)[C@H](C)NC(=O)[C@H](CC(C)C)NC(=O)[C@H](C)NC(=O)[C@H](Cc1ccccc1)NC(=O)c1cc(O)c(O)c(O)c1)C(N)=O [GA-Hecate] (Galloyl-FALALKALKKALKKLKKALKKAL-NH2) | 5.7 | 4.5 | 221 | 23.3 |  |  |
